Columns and labels:
[1] = system: CFA-induced pain model in rats; experiment: Antiallodynic activity on Complete Freund's Adjuvant (CFA)-induced inflammatory pain model; format: in vivo, Sprague-Dawley rats; conditions: Rattus norvegicus, ip, 50 mg/kg intraperitoneally, von Frey threshold relative to sham, 0.5 hr after administration, read-out: Efficacy of 50 mg/kg(%)
Description: Male, Sprague-Dawley rats (210-250 g, Nara Bio, Korea) were habituated for 1 week before surgery and allowed free access to food and water throughout the experimentation. Room temperature and humidity were maintained at 24±2 and 50±10%, respectively.
CFA-induced inflammatory pain was induced by the procedure of Nagakura et al. (2003) and Gregory P. et al. (2010) with minor modifications. CFA (sigma, USA) was injected in the right plantar with a 100 ul volume under gaseous anesthesia with isoflurane. Sham controls were injected with 100 ul of saline, and preparation of the vehicle controls were identical to the group treated with compound, except for administration of vehicles without indentical to the vihecle control group.
Tactile sensitivity (Mechanical allodynia) was evaluated using von Frey monofilaments before and after treatment, and animals were include in the study only if the withdrawal threshold value was less than 4 g. One week after CFA injection, CFA-infused animals, sham-operated animal, and vehicle-operated animals were tested for tactile sensitivity with von Frey monofilaments, with 3 trials for each animal. All Animals were placed in a stainless steel mashe chamber and habituated for 30 min in the test cage. The tactile sensitivity for ipsilateral hind paw was measured using the up-and-down method (Dixon, 1980) with seven von Frey monofilaments (0.4, 1, 2, 4, 6, 8, and 15 g) to 3 trials. The tactile sensitivity test was followed by Dixon's method (Dixon, 1980). The 50% paw withdrawal threshold for each paw was calculated using the following formula: [Xth]log=[vFr]log+ky where [vFr] is the force of the last von Frey used, k=0.2249 which is the average interval (in log units) between the von Frey monofilaments, and y is a value that depends upon the pattern of withdrawal responses (Dixon, 1980).
Antiallodynic effect of compounds was evaluated at the dose of 50 mg/kg (n=4-6), intraperitoneally administrated in a volume of 5 ul/g bw in a vehicle of 30% (v/v) PEG or 20% (v/v) Tween 80. The test was performed peak time of efficacy (0.5 hr) after compound administration.
The relative values compared to the sham (% control) were calculated and shown in Table 5, which show an antiallodynic effect of Compound 1 on CFA-induced pain model in rats.

[2] = system: MES (electroshock) seizure in mice; experiment: Anti-epilepsy activity, MES test in mouse; format: in vivo, ICR mice; conditions: po
Description: (§1) In the MES test (Ref., G. Villetti et al. Neuropharmacology 40(2001) 866-878), an electrical stimulus (mice: 50 mA, 60 Hz, 0.2 sec, and rats: 150 mA, 60 Hz, 0.2 sec in the test animal) supplied by an 11A Shocker (IITC Life Science Company) was delivered through corneal electrodes. All mice or rats assigned to any electroshock at peak time were treated with each test compound sample which was dissolved in 20% tween 80 prepared by saline solvent applied orally before the test. […] Three doses of the test sample were administered orally to 9-18 animals (3-6 mice per dose) for evaluating the respective doses at which 50% of the animals were protected from seizure (ED50). The ED50 value (median effective dose) was calculated by Litchfield and Wicoxon log-probit method which is a dose-response relationship. Experimental animals, male ICR mice and male SD rats, were purchased from OrientBio, Samtako, or Nara Biotech, Korea, and housed in cages (4-5 mice or 3 rats per cage) for 4-5 days. The range of mice body weight was between 19 and 25 grams and range of rats body weight was between 100 and 130 grams.

[3] = system: MES (electroshock) seizure in rats; experiment: Anti-epilepsy activity, MES test in rats; format: in vivo, SD rats; conditions: Rattus norvegicus, po
Description: as §1

[4] = system: PTZ (Pentylenetetrazol)-induced clonic seizure in mice; experiment: Anti-epilepsy activity, scPTZ test in mouse; format: in vivo, ICR mice; conditions: ip
Text: (§2) In this experiment, each test compound sample was formulated as described in Biological Experimental Example 1, and administered intraperitoneally to the test animals (mice; ICR or Rat; SD); Experimental animals, male ICR mice and male SD rats, were purchased from OrientBio or Nara biotech, Korea, and housed 4-5 mice per a cage for 4-5 days. The range of mice body weight was used between 19 and 26 grams and range of rats body weight was used between 100 and 130 grams. After Peak time (0.5, 1, 2 and 4 hr) from the administration, PTZ (Pentylenetetrazol) was administered subcutaneously in the concentration capable of inducing 97% intermittent convulsions (mice: 100-110 mg/kg?bw, 10 μl/g, or rats: 90-110 mg/kg?bw, 2 μl/g). If clonic seizure was not observed for at least 30 minutes in the PTZ administered animal, it can be considered that the test compound has anti-epilepsy activity. The median effective dose (ED50) is determined using 6 animals per a concentration (total three different concentrations), and calculated by Litchfield and Wicoxon log-probit method which is a dose-response relationship.

[5] = system: PTZ (Pentylenetetrazol)-induced clonic seizure in rats; experiment: Anti-epilepsy activity, scPTZ test in rats; format: in vivo, SD rats
Text: as §2

[6] = system: Lithium-pilocarpine induced seizure in rats; experiment: Lithium-pilocarpine induced epilepsy test (LI-PILO), prevention test; format: in vivo, Sprague-Dawley rats; conditions: Rattus norvegicus, ip, prevention, read-out: Lithium pilocarpine model (pre) ED50
Description: Male Sprague-Dawley rats (purchased from Orient Bio Inc. Korea) of body weight 175 grams were used for these studies and 3 rats per cage were housed for 4-5 days. On the day prior to SE, rats received 127 mg/kg lithium chloride (Sigma, St. Louis, Mo., U.S.A.) intraperitoneally (i.p.). Approximately 18-20 h following this treatment, rats were given an i.p. injection of the concentration capable of inducing 97% intermittent convulsions pilocarpine(Sigma, 30-43 mg/kg). An i.p. injection of 2 mg/kg methyl-scopolamine (Sigma) was administered 30 min prior to pilocarpine to block the effects of the muscarinic agonist on peripheral cholinergic receptors. Test drugs were dissolved in 20% tween80 (Sigma).
The drugs were administered intraperitoneally (i.p.) in a volume of 2 μl/g body weight. Pharmacological effects of all of the test materials were evaluated to compare test groups (n=6) with a control group (n=6). Control group was administered vehicle only. The efficacy was measured 0.5, 1, 2, or 4 hours after the administration of the test material. The time point that the most animals were protected was defined as peak time and the ED50 was determined at peak time. The animals were then transferred to observation cages and observed continuously for 90 min Seizure was elicited in approximately 95% of the control group. Protection was defined as complete absence of seizure grade 3-5 (Racine scale; Racine, 1972) over the 90-min observation period. The effective dose of the compound necessary to protect 50% of the animals against seizures compared to controls (i.e., ED50) was determined by a curve fitting program (Excel 2007, Microsoft).

[7] = system: Picrotoxin (PIC)-induced clonic seizure in mice; experiment: Chemical induced seizure model (PIC); format: in vivo, ICR mice; conditions: mice, dose 50 mg/kg
Description: Picrotoxin (PIC) were used to induce the behavioral seizures in the experiments. Male ICR mice (purchased from Orient Bio Inc. Korea) of body weight 19-26 g (mice) were used for these studies. The test materials were administered intraperitoneal (ip) route in a volume of 10 ul/g (mice) weight in rats or mice, respectively. Pharmacological effects of the test materials were evaluated to compared test groups (n=6) with a control group (n=6). Control group was administrated vehicle, only. The peak time was determined by administration of test material's random dose for 0.5, 1, 2, 4 hour. The time that the most protect was defined as a peak time and ED50 was determined by other dose administration at the peak time. Chemical (PIC) was dissolved in 0.9% saline and administered subcutaneously (s.c.) at its CD97 (convulsive dose 97%), the dose of Chemical (PIC) that produced clonic seizures in 97% into a loose fold of skin in the midline of the neck in a volume of 10 ul/g (mice) body weight. The animals were then transferred to observation cages and observed continuously for 45 min. Clonic seizure was elicited in approximately 97% of control group. Protection was defined as a complete absence of clonic seizure over the 45-min observation period. The effective dose of compound necessary to protect against generalized convulsive seizures to 50% of controls (i.e., ED50) was determined by log probit analysis using SPSS software program (SPSS Inc.). (Reference; White H. S., J. H. Woodhead, K. S. Wilcox, J. P. Stables, H. J. Kupferberg, and H. H. Wolf. General Principles; Discovery and Preclinical Development of Antiepileptic Drugs. In: R. H. Levy, R. H. Mattson, B. S. Meldrum, and E. Perucca, eds. Antiepileptic Drugs, 5th Ed. Lippincott Williams & Wilkins, Philadelphia 2002: pp. 36-48.) The obtained results are shown in following Table 10.

[8] = system: ICR mice on hot plate; experiment: Hot-plate test; format: in vivo; conditions: Mus musculus, po, orally, withdrawal latency
Description: To examine the pain relief effect of the carbamate compounds, a hot-plate test was conducted in referring to Current Protocols in Neuroscience; Behavioral Neuroscience Unit 8.9.
(§3) ICR mice (male, 25-28 g; Orient Bio, Korea) were habituated before test (in test room) for 1 hour. Animals were fasted 2 hr before administration of compounds. Compounds were orally administered at the three dose, 10 ul/g, by bodyweight (n=4-6/group). All compounds were dissolved in a vehicle of 30% (v/v) PEG 400 or 20% (v/v) Tween 80. The control group was treated the vehicle without compounds.
0.25-2.0 hr after the administration of compounds, the mice were put on a hot plate pre-heated to 55±1 (Hu, X. et al, 2008), and then, the withdrawal latency time was measured (cut-off time: 30 sec) until the point when each mouse was taking a paw off from the plate, shaking, licking a paw or hind leg, or jumping from the plate.

[9] = system: ICR mice, tail-flick analgesia meter; experiment: Tail-flick test; format: in vivo; conditions: orally, withdrawal latency
Description: To examine the pain relief effect of the carbamate compounds, a tail-flick test was conducted, referring to Current Protocols in Neuroscience; Behavioral Neuroscience Unit 8.9.
as §3, with “25-30g;” for “25-28 g;”, “Each of Compound was” for “Compounds were”, “1-3” for “three”
After the administration of compounds, the mice tail were put on a tail-flick analgesia meter. To avoid tissue damage, maximal exposure time to pain stimuli was restricted to 15 s. The withdrawal latency was measured to the time to the point when each mouse responded. The relative values compared to the control (% control) were calculated.
The relative values compared to the sham were calculated and shown in Table 7, which show effect of the compound of examples on tail-flick test in Mice.

[10] = system: corneally kindled rats; experiment: Corneal kindling (CK) rat model; format: in vivo, Sprague-Dawley rats; conditions: po
Text: Male Sprague-Dawley rats (purchased from Orient Bio Inc. Korea) of body weight 85-100 g were used for these studies. The MES test using the electroshock seizure apparatus designed by Rodent Shocker Type221 (Hugo Sachs Elektronik, Germany). The kindled rat models were electrically stimulated (8 mA, 60 Hz, 2 s, corneal electrodes) twice daily for 21 days until stage 5 seizure scored by Racine's scale (Racine, 1972) were evoked. The kindled rats were fasted and adapted to test condition, for at least 1 hour before the administration of test material. The drugs were administered orally (p.o.) in a volume of 4 μl/g body weight. The corneally kindled rat model test is a model for generalized […] seizures or bipolar disorder and identifies the compound which prevents seizure or bipolar disorder spread. The shock level was set at 8 mA, 60 Hz and the duration was set at 2 s. A drop of 0.9% saline was placed in each eye, the electrodes were placed over the eyes, and the shock was administered immediately. Pharmacological effects of the test materials were evaluated to compare the test groups (n=6) with a control group (n=6). Control group was administrated vehicle, only. The peak time was determined by administration test material's random dose for 0.5, 1, 2, 4 hour. The time that the most protect was defined peak time and ED50 was determined by other dose administration at peak time. […]

SMILES	response vs control in vivo at 50 mg/kg [1]	ED50 [2]	ED50 [3]	ED50 [4]	ED50 ([5]; Rattus norvegicus, ip)	ED50 [6]	PIC(ip) efficacy % [7]	ED50 [8]	Tail-flick test Dose [9]	scPTZ test (ip) efficacy % ([5]; dose 100 mg/kg)	ED50 [10]
NC(=O)O[C@H]1CCc2cccc(Cl)c2[C@H]1O [Example 2, (1R, 2S)-8-chloro-1-hydroxy-1,2,3,4-tetrahydronaphthalen-2-yl carbamate]	23.2%	41 mg/kg	11.6 mg/kg	26.6 mg/kg	39.7 mg/kg	50 mg/kg	50 (66.6%)	–	–	–	–
NC(=O)O[C@H]1Cc2cccc(Cl)c2[C@H]1O [Example 52, (1R, 2S)-7-chloro-1-hydroxy-2,3-dihydro-1H-inden-2-yl carbamate]	34.7%	24.3 mg/kg	10.9 mg/kg	–	–	63 mg/kg	–	119 mg/kg	>200 mg/kg	100 (33.3%,	–
NC(=O)O[C@@H]1Cc2cc(Cl)cc(Cl)c2[C@@H]1O [Example 59, (1S, 2R)-5,7-dichloro-1-hydroxy-2,3-dihydro-1H-inden-2-yl carbamate]	–	56.5 mg/kg	–	–	–	–	–	–	–	–	21.4 mg/kg

— US11168052B2, “Carbamate derivative compounds, processes for preparing them and their uses” (BIO-PHARM SOLUTIONS CO., LTD., priority 2016, dated 2021)
